From PubChem BioAssay AID1259407 (Chemical Carcinogenesis Research Information System (CCRIS), 2018) come the findings set out here.

Activity calls are given as the source filed them. No rule for the calls is given here.

The series has as its system CCRIS mutagenicity, Ames/micronucleus/aberration tests. Nature of the series: CCRIS mutagenicity studies.
Where [1] appears, read: Test System: AMES SALMONELLA TYPHIMURIUM, Strain/Indicator: TA98, Metabolic Activation: NONE, Method: PREINCUBATION
[2] abbreviates: Test System: AMES SALMONELLA TYPHIMURIUM, Strain/Indicator: TA98, Metabolic Activation: NONE, Method: STANDARD PLATE.
Setting [3] is: Test System: AMES SALMONELLA TYPHIMURIUM, Strain/Indicator: TA100, Metabolic Activation: NONE, Method: PREINCUBATION
Where [4] appears, read: Test System: AMES SALMONELLA TYPHIMURIUM, Strain/Indicator: TA100, Metabolic Activation: NONE, Method: STANDARD PLATE.
Where [5] appears, read: Test System: AMES SALMONELLA TYPHIMURIUM, Strain/Indicator: TA98, Metabolic Activation: RAT, LIVER, S-9, AROCLOR 1254, Method: STANDARD PLATE.
Where [6] appears, read: Test System: AMES SALMONELLA TYPHIMURIUM, Strain/Indicator: TA100, Metabolic Activation: RAT, LIVER, S-9, AROCLOR 1254, Method: STANDARD PLATE.
[7] abbreviates: Test System: AMES SALMONELLA TYPHIMURIUM, Strain/Indicator: TA1537, Metabolic Activation: NONE, Method: STANDARD PLATE.
Where [8] appears, read: Test System: AMES SALMONELLA TYPHIMURIUM, Strain/Indicator: TA1537, Metabolic Activation: RAT, LIVER, S-9, AROCLOR 1254, Method: STANDARD PLATE.

Regarding `O=[N+]([O-])c1ccc(Cl)c(Cl)c1`, the mutagenic call by setting is: (End Point: IN VITRO CHROMOSOMAL ABERRATIONS, Test System: HUMAN PERIPHERAL LYMPHOCYTES, Metabolic Activation: NONE) “inactive; negative”; (End Point: In vitro chromosomal aberrations, Test System: Chinese hamster lung (CHL/IU) cells, Metabolic Activation: Rat, Liver, S9, Phenobarbital and 5,6-benzoflavone) “active; positive (structural changes). precipitation observed in culture medium at 0.16”; under setting [1], “inactive; negative”; under setting [2], “inactive; negative”; (Test System: AMES SALMONELLA TYPHIMURIUM, Strain/Indicator: TA98, Metabolic Activation: RAT LIVER S-9, AROCLOR 1254 (10%), Method: STANDARD PLATE) “inactive; negative”; (Test System: AMES SALMONELLA TYPHIMURIUM, Strain/Indicator: TA98, Metabolic Activation: RAT, LIVER, S-9, KANECHLOR 500, Method: PREINCUBATION) “inactive; negative”. In addition, the mutagenic call was “active; positive” under setting [3]; “inactive; negative” under setting [4]; “active; positive” (Test System: AMES SALMONELLA TYPHIMURIUM, Strain/Indicator: TA100, Metabolic Activation: RAT, LIVER, S-9, KANECHLOR 500, Method: PREINCUBATION); “inactive; negative” (Test System: Ames Salmonella typhimurium, Strain/Indicator: TA98, Metabolic Activation: None, Method: Preincubaton); “inactive; negative” (Test System: Ames Salmonella typhimurium, Strain/Indicator: TA98, Metabolic Activation: Rat, Liver, S9, Sodium phenobarbital and 5,6-benzoflavone (10%), Method: Preincubaton); “active; positive” (Test System: Ames Salmonella typhimurium, Strain/Indicator: TA100, Metabolic Activation: None, Method: Preincubaton). In addition, the mutagenic call was “active; positive” (Test System: Ames Salmonella typhimurium, Strain/Indicator: TA100, Metabolic Activation: Rat, Liver, S9, Sodium phenobarbital and 5,6-benzoflavone (10%), Method: Preincubaton); “inactive; negative” (Test System: Ames Salmonella typhimurium, Strain/Indicator: TA1535, Metabolic Activation: None, Method: Preincubaton); “inactive; negative” (Test System: Ames Salmonella typhimurium, Strain/Indicator: TA1535, Metabolic Activation: Rat, Liver, S9, Sodium phenobarbital and 5,6-benzoflavone (10%), Method: Preincubaton); “inactive; negative” (Test System: Ames Salmonella typhimurium, Strain/Indicator: TA1537, Metabolic Activation: None, Method: Preincubaton); “inactive; negative” (Test System: Ames Salmonella typhimurium, Strain/Indicator: TA1537, Metabolic Activation: Rat, Liver, S9, Sodium phenobarbital and 5,6-benzoflavone (10%), Method: Preincubaton); “inactive; negative” (Test System: E. coli, Strain/Indicator: WP2uvrA/pKM101, Metabolic Activation: None, Method: Preincubaton). The mutagenic call (Test System: E. coli, Strain/Indicator: WP2uvrA/pKM101, Metabolic Activation: Rat, Liver, S9, Sodium phenobarbital and 5,6-benzoflavone (10%), Method: Preincubaton) is “inactive; negative”.
For the molecule `O=Cc1cccc(-c2ccccc2)c1`, the mutagenic call is “inactive; negative” under setting [2], “inactive; negative” under setting [5], “inactive; negative” under setting [4] and “inactive; negative” under setting [6].
For `O=C1Nc2cc3ccccc3c3c4c(cc1c23)OCO4`, the mutagenic call is “inactive; negative” under setting [4], “active; positive” under setting [6], “inactive; negative” under setting [7] and “active; positive” under setting [8].
Regarding `O=C1C(=O)c2ccccc2-c2ccccc21`, the mutagenic call is “inactive; negative” (Test System: AMES SALMONELLA TYPHIMURIUM, Strain/Indicator: TA97A, Metabolic Activation: NONE, Method: PREINCUBATION); “inactive; negative” under setting [1]; “inactive; negative” under setting [3]; “inactive; negative” (Test System: AMES SALMONELLA TYPHIMURIUM, Strain/Indicator: TA102, Metabolic Activation: NONE, Method: PREINCUBATION); “inactive; negative” (Test System: AMES SALMONELLA TYPHIMURIUM, Strain/Indicator: TA104, Metabolic Activation: NONE, Method: PREINCUBATION).
For the molecule `CCCCCCCCC=O`, the mutagenic call was “inactive; negative” (End Point: IN VITRO CHROMOSOMAL ABERRATIONS, Test System: RAT HEPATOCYTES, Metabolic Activation: NONE); “inactive; negative” (End Point: IN VITRO MICRONUCLEUS, Test System: RAT HEPATOCYTES, Metabolic Activation: NONE); “inactive; negative” (Test System: AMES SALMONELLA TYPHIMURIUM, Strain/Indicator: TA98, Metabolic Activation: HAMSTER, LIVER, S-9, AROCLOR 1254, Method: STANDARD PLATE); “inactive; negative” under setting [2]; “inactive; negative” under setting [5]; “inactive; negative” (Test System: AMES SALMONELLA TYPHIMURIUM, Strain/Indicator: TA98, Metabolic Activation: RAT, LIVER, S-9, AROCLOR, Method: STANDARD PLATE). Further, the mutagenic call is, setting by setting: (Test System: AMES SALMONELLA TYPHIMURIUM, Strain/Indicator: TA100, Metabolic Activation: HAMSTER, LIVER, S-9, AROCLOR 1254, Method: STANDARD PLATE) “inactive; negative”; under setting [4], “inactive; negative”; under setting [6], “inactive; negative”; (Test System: AMES SALMONELLA TYPHIMURIUM, Strain/Indicator: TA100, Metabolic Activation: RAT, LIVER, S-9, AROCLOR, Method: STANDARD PLATE) “inactive; negative”; (Test System: AMES SALMONELLA TYPHIMURIUM, Strain/Indicator: TA1535, Metabolic Activation: HAMSTER, LIVER, S-9, AROCLOR 1254, Method: STANDARD PLATE) “inactive; negative”; (Test System: AMES SALMONELLA TYPHIMURIUM, Strain/Indicator: TA1535, Metabolic Activation: NONE, Method: STANDARD PLATE) “inactive; negative”. Besides, the mutagenic call is “inactive; negative” (Test System: AMES SALMONELLA TYPHIMURIUM, Strain/Indicator: TA1535, Metabolic Activation: RAT, LIVER, S-9, AROCLOR 1254, Method: STANDARD PLATE); “inactive; negative” (Test System: AMES SALMONELLA TYPHIMURIUM, Strain/Indicator: TA1537, Metabolic Activation: HAMSTER, LIVER, S-9, AROCLOR 1254, Method: STANDARD PLATE); “inactive; negative” under setting [7]; “inactive; negative” under setting [8]; “inactive; negative” (Test System: AMES SALMONELLA TYPHIMURIUM, Strain/Indicator: TA1538, Metabolic Activation: HAMSTER, LIVER, S-9, AROCLOR 1254, Method: STANDARD PLATE); “inactive; negative” (Test System: AMES SALMONELLA TYPHIMURIUM, Strain/Indicator: TA1538, Metabolic Activation: NONE, Method: STANDARD PLATE). In addition, the mutagenic call was “inactive; negative” (Test System: AMES SALMONELLA TYPHIMURIUM, Strain/Indicator: TA1538, Metabolic Activation: RAT, LIVER, S-9, AROCLOR 1254, Method: STANDARD PLATE); “inactive; negative” (Test System: AMES SALMONELLA TYPHIMURIUM, Strain/Indicator: UTH8413, Metabolic Activation: NONE, Method: STANDARD PLATE); “inactive; negative” (Test System: AMES SALMONELLA TYPHIMURIUM, Strain/Indicator: UTH8413, Metabolic Activation: RAT, LIVER, S-9, AROCLOR, Method: STANDARD PLATE); “inactive; negative” (Test System: AMES SALMONELLA TYPHIMURIUM, Strain/Indicator: UTH8414, Metabolic Activation: NONE, Method: STANDARD PLATE); “inactive; negative” (Test System: AMES SALMONELLA TYPHIMURIUM, Strain/Indicator: UTH8414, Metabolic Activation: RAT, LIVER, S-9, AROCLOR, Method: STANDARD PLATE); “active; positive” (Test System: CHINESE HAMSTER V-79, Strain/Indicator: V-79/6-THIOGUANINE (HGPRT), Metabolic Activation: NONE, Method: REPLATING). The mutagenic call was “active; positive” (Test System: CHINESE HAMSTER V-79, Strain/Indicator: V-79/OUABAIN (NA/K), Metabolic Activation: NONE, Method: REPLATING); “inactive; negative. reevaluation of results: equivocal” (Test System: MOUSE LYMPHOMA, Strain/Indicator: L5178Y (TK+/TK-), Metabolic Activation: NONE, Method: SUSPENSION/PLATE); “inactive; negative. reevaluation of results: equivocal” (Test System: MOUSE LYMPHOMA, Strain/Indicator: L5178Y (TK+/TK-), Metabolic Activation: RAT, LIVER, S-9, AROCLOR 1254, Method: SUSPENSION/PLATE); “inactive; negative” (Test System: UDS HUMAN HEPATOCYTES, Strain/Indicator: THY INCORP, Metabolic Activation: NONE, Method: AUTORADIOGRAPHY); “inactive; negative” (Test System: UDS RAT HEPATOCYTES, Strain/Indicator: THY INCORP, Metabolic Activation: NONE, Method: AUTORADIOGRAPHY).
